One data set deals with NCI-H226. The data set can be described thus: NCI in vitro cytotoxicity assay (SRB), NCI-H226. The class given is cell-based. The conditions noted are these: Homo sapiens, 48 h exposure, sulforhodamine B assay, mean graph, read-out: Log10 GI50 (NCI-H226) (converted). The protocol: (§1) Cell culture and drug application procedures have been described previously ([Boyd and Paull, 1995]). Briefly, cell lines were inoculated into a series of 96-well microtiter plates, with varied seeding densities depending on growth characteristics of each cell line. Following a 24 h drug free incubation, test agents were added at five 10-fold dilutions with a maximum concentration of 100 μM. Cellular protein levels were determined after 48 h drug exposure by sulphorhodamine B colorimetry.
(In general: Sulforhodamine B stains cellular protein and so reports cell mass.)

The next data set has as its system M14. Briefly: NCI in vitro cytotoxicity assay (SRB), M14. The class given is cell-based. The conditions noted are these: Homo sapiens, 48 h exposure, sulforhodamine B assay, mean graph, read-out: Log10 GI50 (M14) (converted). On the procedure: as §1
Another data set relates to UO 31. Briefly: NCI in vitro cytotoxicity assay (SRB), UO 31. The format is cell-based. As to conditions: Homo sapiens, 48 h exposure, sulforhodamine B assay, mean graph, read-out: Log10 GI50 (UO 31) (converted). On the procedure: as §1
The test system of a further data set is MDA-MB-231/ATCC. The data set can be described thus: NCI in vitro cytotoxicity assay (SRB), MDA-MB-231/ATCC. The class given is cell-based. The conditions noted are these: Homo sapiens, 48 h exposure, sulforhodamine B assay, mean graph, read-out: Log10 GI50 (MDA-MB-231/ATCC) (converted). On the procedure:
as §1

Data set [1] concerns CYP1A1 protein expression in MCF-7 cells. The data set can be described thus: Western blot of CYP1A1 protein, MCF-7 lysates. The format is cell-based, human. As to conditions: 1 μM, 24 h. The protocol: Whole cell lysates were prepared for examination of CYP1A1 protein expression from untreated MCF-7, IGROV-1 and HCT 116 cultures and following exposure of cells to compounds 1, 2, 2a, 2b, 3, 3a, 3b, 4, 4a and 4b. Following protein determination (n=3, [Bradford, 1976]) and addition of sample buffer, samples were boiled at 95°C for 5 min and solubilised proteins (50 μg) were separated by sodium dodecyl sulphate (SDS) polyacrylamide gel (10%) electrophoresis. Proteins were electroblotted to polyvinylidene difluoride (PVDF) membranes and probed for CYP1A1 protein with polyclonal antiserum specific for human CYP1A1/1A2 (Gentest Corporation). Secondary antibody was conjugated to alkaline phosphatase, and CYP1A1 was detected following brief (<10 min) incubation with bromochloroindolyl phosphate and nitro-blue tetrazolium in alkaline phosphatase buffer. Molecular weight markers and a positive control of recombinant CYP1A1 (Gentest Corporation), included in all blots, confirmed detection of 52 kDa CYP1A1 protein.
(Immunoblotting shows a protein as a band on a membrane.)

In the next data set the test system is TK-10. The data set can be described thus: NCI in vitro cytotoxicity assay (SRB), TK-10. The class given is cell-based. As to conditions: Homo sapiens, 48 h exposure, sulforhodamine B assay, mean graph, read-out: Log10 GI50 (TK-10) (converted). On the procedure: as §1
The subject of data set [2] is MDA 468 (ER−) human derived breast carcinoma cells. Briefly: Growth inhibitory assay (MTT), MDA 468. The format is cell-based. The conditions noted are these: Breast carcinoma cell, ER− MDA 468, 3 days (72 h) treatment, n=8, representative mean, ^a = biphasic dose response. On the procedure: Prodrugs were prepared as 10 mM top stocks, dissolved in dimethylsulphoxide (DMSO) or sterile ddH2O, and stored at 4°C, protected from light for a maximum period of 4 weeks. MCF-7 (ER+) and MDA 468 (ER−) human derived breast carcinoma cells, cultivated at 37°C in an atmosphere of 5% CO2 in RPMI 1640 medium supplemented with 2 mM L-glutamine and 10% foetal calf serum, were routinely subcultured twice weekly to maintain continuous logarithmic growth. Cells were seeded into 96-well microtiter plates at a density of 5×10^3 per well and allowed 24 h to adhere before drugs were introduced (final concentration 0.1 nM–100 μM, n=8). Serial drug dilutions were prepared in medium immediately prior to each assay. Viable cell masses at the time of drug addition (time-zero), and following 72 h drug exposure were determined by cell-mediated 3-(4,5-dimethylthiazol-2-yl)-2,5-diphenyltetrazolium bromide (MTT) reduction. MTT was added to each well (final concentration 400 μg ml^−1) and plates were incubated at 37°C for 4 h to allow reduction of MTT by viable cell dehydrogenases to an insoluble formazan product. Well supernatants were aspirated and cellular formazan solubilised by addition of DMSO : glycine buffer (pH 10.5) (4 : 1). Cell growth as well as drug activity were determined by measuring absorbance at 550 nm using an Anthos Labtec systems plate reader.

A further data set deals with MCF7. Briefly: NCI in vitro cytotoxicity assay (SRB), MCF7. The class given is cell-based. The conditions noted are these: Homo sapiens, 48 h exposure, sulforhodamine B assay, mean graph, read-out: Log10 GI50 (MCF7) (converted). The protocol: as §1
For the next data set, the system named is SK-MEL-2. The data set can be described thus: NCI in vitro cytotoxicity assay (SRB), SK-MEL-2. The class given is cell-based. The conditions noted are these: Homo sapiens, 48 h exposure, sulforhodamine B assay, mean graph, read-out: Log10 GI50 (SK-MEL-2) (converted). The protocol:
as §1

The next data set deals with OVCAR-8. Briefly: NCI in vitro cytotoxicity assay (SRB), OVCAR-8. The class given is cell-based. The conditions noted are these: Homo sapiens, 48 h exposure, sulforhodamine B assay, mean graph, read-out: Log10 GI50 (OVCAR-8) (converted). The protocol:
as §1

The next data set relates to NCI-460. Briefly: NCI in vitro cytotoxicity assay (SRB), NCI-460. The class given is cell-based. The conditions noted are these: Homo sapiens, 48 h exposure, sulforhodamine B assay, mean graph, read-out: Log10 GI50 (NCI-460) (converted). On the procedure:
as §1

A further data set concerns ACHN. The data set can be described thus: NCI in vitro cytotoxicity assay (SRB), ACHN. As to conditions: Homo sapiens, 48 h exposure, sulforhodamine B assay, mean graph, read-out: Log10 GI50 (ACHN) (converted). The format is cell-based. The protocol:
as §1

Structures are written as SMILES.

As for `Cc1cc(-c2nc3cc(F)ccc3s2)ccc1NC(=O)[C@@H](N)CCCCN` [Compound 2b], the GI50 in the data set with NCI-H226 was 0.155 µM; in the data set with M14, 2.14 µM; in the data set with UO 31, 3.09 µM; with MDA-MB-231/ATCC, 3.55 µM; in the data set with TK-10, 0.0174 µM; in [2], 0.0577 µM. For the same compound, the GI50 in the data set on MCF7 is below 0.01 µM; in the data set with SK-MEL-2, 2.51 µM; in the data set with OVCAR-8 it was 11.2 µM; with NCI-460, 0.0708 µM; with ACHN, 6.03 µM. Also, the “CYP1A1 protein expression (Western blot)” value in data set [1] is listed as “induced”.
As for `Cc1cc(-c2nc3cc(F)ccc3s2)ccc1N` [Compound 2, 2-(4-Amino-3-methylphenyl)-5-fluorobenzothiazole], the GI50 in the data set with NCI-H226 was below 0.01 µM; in the data set on M14 it was 33.9 µM; with UO 31 it was 85.1 µM; in the data set on MDA-MB-231/ATCC, 17.4 µM; in the data set with TK-10, below 0.01 µM; in data set [2] it was below 0.0001 µM. Further, the GI50 with MCF7 was below 0.01 µM; with SK-MEL-2, above 100 µM; in the data set on OVCAR-8, above 100 µM; with NCI-460 it was below 0.01 µM; in the data set with ACHN, 30.2 µM. In addition, the “CYP1A1 protein expression (Western blot)” value in [1] is on record as “induced”.

Values taken from paper PMC2375326, “In vitro evaluation of amino acid prodrugs of novel antitumour 2-(4-amino-3-methylphenyl)benzothiazoles” (British Journal of Cancer, 2002).
